# Laboratory results from US5591728A, “New phosphonic acid compounds” (Adir Et Compagnie, priority 1993, dated 1997).
# Counter-ions that a name gives are not always drawn.
# Legend:
# [1] = test system: pressor responses obtained with big ET-1; experiment: In vitro study on perfused isolated rat kidney: pressor response to big ET-1; set-up: species or system male Wistar rats; details: big ET-1 0.4 nmol bolus
# Procedure: The studies are performed on kidneys prepared from male Wistar rats (300400 g). The rats are anesthetized with pentobarbitone sodium (50 mg/kg i.p.) and the left kidney is prepared so as to permit perfusion with Tyrode solution. The variations in perfusion pressure are measured continuously. The perfusion flow rate is 6 ml/min. After stabilization, a bolus injection of ET- 1 (0.03 nmol) or of big ET-1 (0.4 nmol) is performed and the pressor response is recorded. […] The IC50 values of the products are calculated and the results are given in μM.
# [2] = test system: big ET-1-induced pressor responses (inhibition of ECE); experiment: In vivo study on pithed rats: big ET-1-induced pressor response; set-up: species or system Sprague-Dawley rats; details: for IC50 with respect to big ET-1: big ET-1 1 nmol/kg injection, product given by infusion
# Excerpt: (§1) Sprague-Dawley rats (300400 g) are anesthetized with ether. The animals are then pithed and placed under artificial respiration. The vagus nerves are sectioned and the carotid arteries ligated. A catheter is introduced into one of the carotid arteries to measure arterial blood pressure. A second catheter is introduced into the vein of the penis to enable substances to be injected.
# After a stabilization period, the animals receive an injection of endothelin-1 (ET-1; 0.5 nmol/kg) or its precursor, big endothelin-1 (big ET-1; 1 nmol/kg).
# [3] = test system: ET-1-induced hypertension; experiment: In vivo study on pithed rats: ET-1-induced hypertension; set-up: species or system Sprague-Dawley rats; details: ET-1 0.5 nmol/kg
# Excerpt: as §1
# After a stabilization period, the animals receive an injection of endothelin-1 (ET-1; 0.5 nmol/kg) or its precursor, big endothelin-1 (big ET-1; 1 nmol/kg). The pressor responses are recorded and, after the pressure has returned to its initial value (1 h 30 min to 2 hours), a second injection of ET-1 or of big ET-1 is given in the presence or absence of an infusion of a product of the invention or of the reference substance, phosphoramidon. Phosphoramidon and the products of the invention had no effect on ET-1-induced hypertension.
Compound,IC50 [1] [µM],IC50 with respect to big ET-1 [2] [µg/kg/min],effect on ET-1-induced hypertension [3],inhibition of pressor responses obtained with big ET-1 ([1]; in words),"inhibition of big ET-1-induced pressor responses ([2]; big ET-1 1 nmol/kg, in words)"
"CC(C)C[C@H](NP(=O)(O)OCC(O)CO)C(=O)N[C@@H](Cc1c[nH]c2ccccc12)C(=O)O (stereo partly drawn) [Example 1, N-[(2,3-Dihydroxypropoxy)hydroxyphosphinyl]-(S)Leu-(S) Trp-OH disodium salt]",4,100,–,–,–
"CC(C)C[C@H](NP(=O)(O)OCCC(O)CO)C(=O)N[C@@H](Cc1c[nH]c2ccccc12)C(=O)O (stereo partly drawn) [Example 12, N-[(3,4-Dihydroxybutoxy)hydroxyphosphinyl]-(S)Leu-(S) Trp-OH dilithium salt]",–,140,–,–,–
"CC(C)C[C@H](NP(=O)(O)O[C@@H]1O[C@@H](C)[C@H](O)[C@@H](O)[C@H]1O)C(=O)N[C@@H](Cc1c[nH]c2ccccc12)C(=O)[O-].CC(C)C[C@H](NP(=O)(O)O[C@@H]1O[C@@H](C)[C@H](O)[C@@H](O)[C@H]1O)C(=O)N[C@@H](Cc1c[nH]c2ccccc12)C(=O)[O-].[Na+].[Na+] [Phosphoramidon, N-[α-(S)-(rhamnopyranosyloxy) hydroxyphosphinyl]-(S)leu-(S) Trp-OH disodium salt, reference compound]",0.9,125,no effect,substantially inhibited,inhibited big ET-1-induced pressor responses in a dose-dependent manner
"CC(C)C[C@H](NP(=O)(O)OC(CO)CO)C(=O)N[C@@H](Cc1c[nH]c2ccccc12)C(=O)O [Example 8, N-{[(1-Hydroxymethyl-2-hydroxy)ethoxy]hydroxyphosphinyl]-(S)Leu-(S) Trp-OH dilithium salt]",–,480,–,–,–
"CC(C)C[C@H](NP(=O)(O)OCCO)C(=O)N[C@@H](Cc1c[nH]c2ccccc12)C(=O)O [Example 4, N-[(2-Hydroxyethoxy)hydroxyphosphinyl]-(S)Leu-(S)Trp-OH disodium salt]",7,430,–,–,–
"N-[((R)-2,3-Dihydroxypropoxy)hydroxyphosphinyl]-(S)Leu-(S)Trp-OH dilithium salt [Example 10]",–,230,–,–,–
"CCOC(=O)[C@H](Cc1c[nH]c2ccccc12)NC(=O)[C@H](CC(C)C)NP(=O)(O)OCCO [Example 3, N-[(2-Hydroxyethoxy)hydroxyphosphinyl]-(S)Leu-(S)Trp-OEt disodium salt]",5,280,–,–,–
"CCOC(=O)[C@H](Cc1c[nH]c2ccccc12)NC(=O)[C@H](CC(C)C)NP(=O)(O)OCCCN [Example 9, N-[(3-Aminopropoxy)hydroxyphosphinyl]-(S)Leu-(S)Trp-OEt lithium salt]",–,200,–,–,–
"N-[((S)-2,3-Dihydroxypropoxy)hydroxyphosphinyl]-(S)Leu-(S)Trp-OH dilithium salt [Example 11]",–,100,–,–,–
